The values that follow come from patent US20030143729A1 (Synaptic Pharmaceutical Corporation, priority 1992, published 2003).

In assay [1] the test system is animals. To be noted: in vivo; cited from earlier work.
Assay [2] addresses T1, hBGT-1 (Homo sapiens, UniProt P48065).
T1 sequence (P48065 1-614): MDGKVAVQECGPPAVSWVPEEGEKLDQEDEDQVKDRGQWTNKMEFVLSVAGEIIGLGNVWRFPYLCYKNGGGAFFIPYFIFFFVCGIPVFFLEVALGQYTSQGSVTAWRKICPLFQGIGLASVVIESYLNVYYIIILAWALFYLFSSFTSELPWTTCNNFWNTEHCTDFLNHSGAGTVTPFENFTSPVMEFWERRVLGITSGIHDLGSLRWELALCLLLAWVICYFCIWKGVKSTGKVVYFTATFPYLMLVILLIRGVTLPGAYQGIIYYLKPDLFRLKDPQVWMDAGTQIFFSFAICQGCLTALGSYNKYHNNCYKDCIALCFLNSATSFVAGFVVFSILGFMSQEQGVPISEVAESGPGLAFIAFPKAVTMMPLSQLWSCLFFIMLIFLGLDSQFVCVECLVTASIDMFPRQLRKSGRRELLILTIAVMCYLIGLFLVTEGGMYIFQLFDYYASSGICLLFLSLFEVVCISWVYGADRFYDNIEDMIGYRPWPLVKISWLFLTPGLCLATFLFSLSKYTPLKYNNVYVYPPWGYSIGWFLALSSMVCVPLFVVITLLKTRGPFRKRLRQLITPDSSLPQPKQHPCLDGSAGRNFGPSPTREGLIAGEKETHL
The following applies: read-out: IC50 for inhibition of [3H]GABA uptake, human BGT-1; stable cell line; 50 nM [3H]GABA.
Description: (§1) Cells were grown under standard conditions (37° C., 5% CO2) in Dulbecco's modified Eagles's medium (GIBCO, Grand Island, N.Y.).
(§2) Cells grown in 24-well plates were washed 3× with HEPES-buffered saline (HBS, in mM: NaCl, 150; HEPES, 20; CaCl2, 1; glucose, 10; KCl, 5; MgCl2, 1; pH 7.4) and allowed to equilibrate on a 37° C. slide warmer. After 10 minutes the medium was removed and unlabeled drugs in HBS were added (450 μl/well). […] Plates were incubated at 37° C. for 10 minutes, then washed rapidly 3× with ice-cold HBS, using a 24-position plate washer (Brandel, Gaithersburg, Mass.; model PW-12). Cells were solubilized with 0.05% sodium deoxycholate/0.1N NaOH (0.25 ml/well), an aliquot neutralized with 1N HCl, and radioactivity was determined by scintillation counting. Protein was quantified in an aliquot of the solubilized cells using a BIO-RAD protein assay kit, according to the manufacturer's directions.
(§3) Lipophilic inhibitors were dissolved in DMSO.
(§4) Data Analysis: Competition curves were conducted in duplicate, using 10 concentrations of unlabeled drug.

For assay [3], the target named is human GAT-1 (Homo sapiens, UniProt P30531). Kind of assay: cell-based.
Chain of human GAT-1 (P30531 whole entry): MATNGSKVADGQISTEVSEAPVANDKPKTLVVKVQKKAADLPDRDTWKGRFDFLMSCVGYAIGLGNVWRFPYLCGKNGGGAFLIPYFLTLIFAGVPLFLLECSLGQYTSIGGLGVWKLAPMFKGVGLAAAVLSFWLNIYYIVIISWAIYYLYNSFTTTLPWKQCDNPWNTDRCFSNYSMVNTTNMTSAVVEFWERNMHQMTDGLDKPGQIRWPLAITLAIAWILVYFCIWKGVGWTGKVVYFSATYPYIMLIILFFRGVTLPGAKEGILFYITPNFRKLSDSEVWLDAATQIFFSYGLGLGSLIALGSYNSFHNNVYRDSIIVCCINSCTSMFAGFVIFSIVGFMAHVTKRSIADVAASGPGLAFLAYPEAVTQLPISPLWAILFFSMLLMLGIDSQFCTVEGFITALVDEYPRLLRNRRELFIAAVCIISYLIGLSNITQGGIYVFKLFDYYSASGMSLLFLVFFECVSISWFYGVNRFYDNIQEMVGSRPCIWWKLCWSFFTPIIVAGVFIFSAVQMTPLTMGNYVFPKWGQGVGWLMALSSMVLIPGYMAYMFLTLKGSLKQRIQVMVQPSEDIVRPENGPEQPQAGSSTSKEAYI
Description: as §1, §2, §3, §4

With `O=C(O)C1=CCCN(CCON=C(c2ccccc2)c2ccccc2)C1` [NNC-711], in assay [1], the “anticonvulsive activity in animals” value is given as “anticonvulsive activity”. Further, in assay [2], the IC50 stood at 0.622 ± 0.265 mM.

In assay [3], `NCCC(=O)O` [β-alanine] came in with an IC50 of 5.69 ± 1.89 mM.

As usually defined, the IC50 is the concentration at which inhibition is half-maximal.
